Patent publication US10670605B2, “Cysteine reactive probes and uses thereof” (The Scripps Research Institute, priority 2015, dated 2020)

Tests used:
Test in all cases: Competitive isoTOP-ABPP in situ (fragment-treated cells)
Assay type in all cases: cell-based
[1] = biological target: T1, cysteines in MDA-MB-231 and Ramos cells (Homo sapiens, UniProt Q15013)
T1 sequence (Q15013 1-274): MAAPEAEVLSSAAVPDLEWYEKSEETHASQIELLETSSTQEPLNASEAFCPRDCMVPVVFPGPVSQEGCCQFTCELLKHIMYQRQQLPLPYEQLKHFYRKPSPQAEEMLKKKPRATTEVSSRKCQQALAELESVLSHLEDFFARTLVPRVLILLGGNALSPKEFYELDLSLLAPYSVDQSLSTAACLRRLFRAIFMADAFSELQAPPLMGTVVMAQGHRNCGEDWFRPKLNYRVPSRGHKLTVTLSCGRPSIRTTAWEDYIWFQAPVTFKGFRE

[2] = biological target: T2, cysteines in MDA-MB-231 and Ramos cells (Homo sapiens, UniProt Q5TFE4); details: 200 μM, insitu
T2 sequence (Q5TFE4 1-455): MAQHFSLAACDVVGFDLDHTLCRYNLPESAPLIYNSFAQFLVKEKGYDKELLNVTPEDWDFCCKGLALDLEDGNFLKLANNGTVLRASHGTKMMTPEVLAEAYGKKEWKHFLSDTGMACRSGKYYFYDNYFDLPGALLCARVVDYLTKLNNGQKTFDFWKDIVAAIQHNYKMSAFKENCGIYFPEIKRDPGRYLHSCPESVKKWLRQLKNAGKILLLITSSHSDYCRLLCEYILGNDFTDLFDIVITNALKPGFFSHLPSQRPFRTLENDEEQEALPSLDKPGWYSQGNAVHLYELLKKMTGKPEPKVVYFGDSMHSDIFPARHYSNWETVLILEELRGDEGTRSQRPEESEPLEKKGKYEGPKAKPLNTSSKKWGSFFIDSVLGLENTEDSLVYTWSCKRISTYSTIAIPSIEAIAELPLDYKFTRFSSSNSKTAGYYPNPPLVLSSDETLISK

[3] = biological target: T3, cysteines in MDA-MB-231 and Ramos cells (Homo sapiens, UniProt Q86YH6)
T3 sequence (Q86YH6 1-399): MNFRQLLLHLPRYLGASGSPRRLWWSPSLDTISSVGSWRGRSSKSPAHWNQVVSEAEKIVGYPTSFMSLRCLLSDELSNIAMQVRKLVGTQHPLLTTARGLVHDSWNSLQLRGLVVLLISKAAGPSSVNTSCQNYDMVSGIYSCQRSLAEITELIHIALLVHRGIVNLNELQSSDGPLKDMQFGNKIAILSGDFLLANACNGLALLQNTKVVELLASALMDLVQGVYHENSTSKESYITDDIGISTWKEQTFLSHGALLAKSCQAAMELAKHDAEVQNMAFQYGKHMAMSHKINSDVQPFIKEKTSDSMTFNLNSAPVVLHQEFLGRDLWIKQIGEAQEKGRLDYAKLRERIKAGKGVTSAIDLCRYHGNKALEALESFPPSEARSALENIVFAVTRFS

[4] = biological target: T4, cysteines in MDA-MB-231 and Ramos cells (Homo sapiens, UniProt Q9NWA0)
T4 sequence (Q9NWA0 1-146): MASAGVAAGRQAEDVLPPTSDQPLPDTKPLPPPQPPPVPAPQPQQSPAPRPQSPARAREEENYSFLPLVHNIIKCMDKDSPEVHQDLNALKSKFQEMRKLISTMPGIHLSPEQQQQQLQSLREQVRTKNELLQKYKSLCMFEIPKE

[5] = biological target: T5, cysteines in MDA-MB-231 and Ramos cells (Homo sapiens, UniProt Q15345)
T5 sequence (Q15345 1-812): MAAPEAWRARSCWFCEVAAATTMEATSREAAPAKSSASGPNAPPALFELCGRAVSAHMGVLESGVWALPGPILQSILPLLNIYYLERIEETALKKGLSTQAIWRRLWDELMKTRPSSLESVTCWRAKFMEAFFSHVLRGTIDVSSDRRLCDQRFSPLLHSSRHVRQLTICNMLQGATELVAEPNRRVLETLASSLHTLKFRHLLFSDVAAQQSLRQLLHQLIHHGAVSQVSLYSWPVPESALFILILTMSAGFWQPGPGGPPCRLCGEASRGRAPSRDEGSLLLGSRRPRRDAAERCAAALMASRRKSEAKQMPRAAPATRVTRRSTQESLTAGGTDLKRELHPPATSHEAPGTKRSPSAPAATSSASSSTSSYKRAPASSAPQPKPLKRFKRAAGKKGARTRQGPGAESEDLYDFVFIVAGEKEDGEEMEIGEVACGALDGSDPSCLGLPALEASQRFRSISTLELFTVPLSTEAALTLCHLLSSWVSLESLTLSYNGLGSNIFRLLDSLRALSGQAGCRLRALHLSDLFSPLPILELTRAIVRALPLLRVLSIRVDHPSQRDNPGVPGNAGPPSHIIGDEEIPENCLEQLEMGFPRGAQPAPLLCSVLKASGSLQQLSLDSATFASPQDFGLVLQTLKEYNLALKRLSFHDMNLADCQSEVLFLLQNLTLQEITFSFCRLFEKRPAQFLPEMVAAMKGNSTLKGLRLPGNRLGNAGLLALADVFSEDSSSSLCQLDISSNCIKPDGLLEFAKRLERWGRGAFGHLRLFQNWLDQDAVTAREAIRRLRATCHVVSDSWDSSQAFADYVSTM

[6] = biological target: T6, cysteines in MDA-MB-231 and Ramos cells (Homo sapiens, UniProt Q8WVV9)
T6 sequence (Q8WVV9 1-542): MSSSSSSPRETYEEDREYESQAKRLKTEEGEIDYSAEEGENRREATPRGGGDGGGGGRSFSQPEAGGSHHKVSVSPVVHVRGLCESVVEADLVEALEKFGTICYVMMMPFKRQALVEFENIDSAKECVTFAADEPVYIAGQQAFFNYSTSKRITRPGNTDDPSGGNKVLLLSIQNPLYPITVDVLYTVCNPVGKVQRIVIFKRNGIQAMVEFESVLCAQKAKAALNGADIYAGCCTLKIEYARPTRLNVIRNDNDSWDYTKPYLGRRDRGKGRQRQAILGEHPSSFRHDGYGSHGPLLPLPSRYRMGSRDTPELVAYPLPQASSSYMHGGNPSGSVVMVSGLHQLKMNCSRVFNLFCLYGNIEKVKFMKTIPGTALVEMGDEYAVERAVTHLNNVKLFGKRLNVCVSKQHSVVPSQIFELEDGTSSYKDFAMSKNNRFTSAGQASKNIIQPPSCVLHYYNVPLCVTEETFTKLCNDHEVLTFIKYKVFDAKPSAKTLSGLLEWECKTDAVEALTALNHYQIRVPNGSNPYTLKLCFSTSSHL

[7] = biological target: cysteines in MDA-MB-231 and Ramos cells (Homo sapiens, UniProt Q13630); details: 200 μM, insitu
cysteines in MDA-MB-231 and Ramos cells (Homo sapiens, UniProt Q13630), sequence (Q13630 whole entry): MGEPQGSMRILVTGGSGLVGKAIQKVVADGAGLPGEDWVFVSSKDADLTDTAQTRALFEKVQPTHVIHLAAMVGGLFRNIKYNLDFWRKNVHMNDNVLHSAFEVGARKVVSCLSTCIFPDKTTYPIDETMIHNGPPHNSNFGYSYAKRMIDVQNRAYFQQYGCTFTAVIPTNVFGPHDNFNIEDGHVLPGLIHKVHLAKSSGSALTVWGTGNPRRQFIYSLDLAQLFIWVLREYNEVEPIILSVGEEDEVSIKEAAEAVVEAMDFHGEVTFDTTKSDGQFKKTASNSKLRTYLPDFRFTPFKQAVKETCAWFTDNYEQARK

SMILES: COc1ccccc1OCCNC(=O)CCl [compound 28]
- isoTOP-ABPP ratio Q15013_C124 ([1]; 200 μM, insitu, 231): 1.0

SMILES: Cc1ccc(C=C(C#N)C(=O)NCCN2CCOCC2)cc1 [compound 41]
- isoTOP-ABPP ratio Q5TFE4_C119 [2]; 231: 0.5
- isoTOP-ABPP ratio Q86YH6_C71 ([3]; 200 μM, insitu, 231): 0.9
- isoTOP-ABPP ratio Q9NWA0_C139 ([4]; 200 μM, insitu, 231): 0.8
- isoTOP-ABPP ratio Q15345_C297 ([5]; 200 μM, insitu, 231): 0.8

SMILES: O=C(CCl)NC(=O)NC12CC3CC(CC(C3)C1)C2 [compound 12]
- isoTOP-ABPP ratio Q86YH6_C71 ([3]; 200 μM, insitu, 231): 20.0
- isoTOP-ABPP ratio, cysteine Q8WVV9_C464 ([6]; 200 μM, insitu, 231): 20.0
- isoTOP-ABPP ratio, cysteine Q9NWA0_C139 ([4]; 200 μM, insitu, 231): 20.0

SMILES: O=C(CCl)NCCc1c[nH]c2ccccc12 [compound 13]
- isoTOP-ABPP ratio, cysteine Q5TFE4_C119 ([2]; ramos): 1.7
- isoTOP-ABPP ratio Q86YH6_C71 ([3]; 200 μM, insitu, 231): 1.2
- isoTOP-ABPP ratio Q86YH6_C71 ([3]; 200 μM, insitu, ramos): 1.8
- isoTOP-ABPP ratio, cysteine Q13630_C116 ([7]; ramos): 1.2
- isoTOP-ABPP ratio, cysteine Q9NWA0_C139 ([4]; 200 μM, insitu, 231): 1.1
- isoTOP-ABPP ratio, cysteine Q15345_C297 ([5]; 200 μM, insitu, 231): 1.6

SMILES: O=C(CCl)N1CCC(Cc2ccccc2)CC1 [compound 9]
- isoTOP-ABPP reactivity Q5TFE4_C119 NT5DC1 [2]; 231: 20.0
- isoTOP-ABPP reactivity Q13630_C116 TSTA3 [7]; 231: 1.9

SMILES: COc1ccc(C2CC(c3cccs3)=NN2C(=O)CCl)cc1 (stereo not shown) [compound 4]
- isoTOP-ABPP reactivity Q15013_C124 MAD2L1BP ([1]; 100 μM in situ 231): 13.0
- isoTOP-ABPP reactivity Q86YH6_C71 PDSS2 ([3]; 100 μM in situ 231): 20.0
- isoTOP-ABPP reactivity Q9NWA0_0139 MED9 ([4]; 100 μM in situ 231): 14

SMILES: O=C(CCl)NC12CC3CC(CC(C3)C1)C2 [compound 21]
- isoTOP-ABPP ratio, cysteine Q5TFE4_C119 [2]; 231: 1.2
- isoTOP-ABPP ratio Q86YH6_C71 ([3]; 200 μM, insitu, 231): 2.1
- isoTOP-ABPP ratio, cysteine Q8WVV9_C464 ([6]; 200 μM, insitu, 231): 1.4
- isoTOP-ABPP ratio, cysteine Q13630_C116 [7]; 231: 0.8
- isoTOP-ABPP ratio, cysteine Q9NWA0_C139 ([4]; 200 μM, insitu, 231): 1.5
- isoTOP-ABPP ratio, cysteine Q15345_C297 ([5]; 200 μM, insitu, 231): 1.1

SMILES: O=C(CCl)Nc1cccc2ncccc12 [compound 51]
- isoTOP-ABPP ratio Q15013_C124 ([1]; 200 μM, insitu, 231): 1.2
- isoTOP-ABPP ratio Q8WVV9_C464 ([6]; 200 μM, insitu, 231): 3.2

SMILES: Cn1cc(S(=O)(=O)N2CCOCC2)cc1C(=O)NC(=O)CCl [compound 11]
- isoTOP-ABPP ratio, cysteine Q15013_C124 ([1]; 100 μM in situ 231): 1.0
- isoTOP-ABPP ratio Q86YH6_C71 ([3]; 100 μM in situ 231): 1.0
- isoTOP-ABPP ratio, cysteine Q8WVV9_C464 ([6]; 100 μM in situ 231): 0.9
- isoTOP-ABPP ratio, cysteine Q15345_C297 ([5]; 100 μM in situ 231): 1.1

SMILES: C=CC(=O)Nc1cc(F)c(N2CCN(C(=O)OC(C)(C)C)CC2)c(F)c1 [compound 38]
- isoTOP-ABPP ratio Q8WVV9_C464 ([6]; 200 μM, insitu, 231): 1.5
- isoTOP-ABPP ratio Q15345_C297 ([5]; 200 μM, insitu, 231): 1.4

SMILES: CC1CCc2ccccc2N1C(=O)CCl (stereo not shown) [compound 45]
- isoTOP-ABPP ratio Q15013_C124 ([1]; 200 μM, insitu, 231): 20.0
- isoTOP-ABPP ratio Q86YH6_C71 ([3]; 200 μM, insitu, 231): 20.0
- isoTOP-ABPP ratio Q8WVV9_C464 ([6]; 200 μM, insitu, 231): 20.0
- isoTOP-ABPP ratio Q13630_C116 [7]; 231: 20.0

SMILES: COc1ccc2c(c1)CCCN2C(=O)CCl [compound 2]
- isoTOP-ABPP reactivity Q86YH6_C71 PDSS2 ([3]; 200 μM, insitu, 231): 20.0
- isoTOP-ABPP reactivity Q13630_C116 TSTA3 [7]; 231: 20.0
- isoTOP-ABPP reactivity Q9NWA0_0139 MED9 ([4]; 200 μM, insitu, 231): 4.3

SMILES: COc1cc2c(cc1OC)CN(C(=O)CCl)CC2 [compound 8]
- isoTOP-ABPP reactivity Q15013_C124 MAD2L1BP ([1]; 200 μM, insitu, 231): 5.4

SMILES: CC(C)CCOCCNC(=O)CCl [compound 27]
- isoTOP-ABPP ratio Q15013_C124 ([1]; 200 μM, insitu, 231): 1.0
- isoTOP-ABPP ratio Q86YH6_C71 ([3]; 200 μM, insitu, 231): 1.3
- isoTOP-ABPP ratio Q9NWA0_C139 ([4]; 200 μM, insitu, 231): 1.3

SMILES: O=C(CCl)N1CCN(S(=O)(=O)c2ccccc2F)CC1 [compound 10]
- isoTOP-ABPP ratio, cysteine Q5TFE4_C119 ([2]; ramos): 20.0
- isoTOP-ABPP ratio Q86YH6_C71 ([3]; 200 μM, insitu, 231): 20.0
- isoTOP-ABPP ratio, cysteine Q13630_C116 [7]; 231: 20.0
- isoTOP-ABPP ratio, cysteine Q9NWA0_C139 ([4]; 200 μM, insitu, 231): 2.9

SMILES: O=C(CCl)N1CCN(CC(=O)N2CCOCC2)CC1 [compound 29]
- isoTOP-ABPP ratio Q86YH6_C71 ([3]; 200 μM, insitu, ramos): 1.1
- isoTOP-ABPP ratio Q9NWA0_C139 ([4]; 200 μM, insitu, ramos): 0.7

SMILES: C=CC(=O)N(Cc1cccnc1)c1cc(C(F)(F)F)cc(C(F)(F)F)c1 [compound 31]
- isoTOP-ABPP ratio Q5TFE4_C119 [2]; 231: 3.1
- isoTOP-ABPP ratio Q15345_C297 ([5]; 200 μM, insitu, 231): 0.9
